{"source": "paper PMC2749862", "about": "“Glucocorticoids with different chemical structures but similar glucocorticoid receptor potency regulate subsets of common and unique genes in human trabecular meshwork cells” (BMC Medical Genomics, 2009)", "key": {"[1]": {"system": "TM 93 cells", "assay": "Microarray gene expression profiling in TM 93 cells (with IPA and GoMiner analysis)", "type": "cell-based, human", "settings": "1 μM, 24 hr", "description": "(§1) Cells were maintained in low glucose Dulbecco's Modified Eagle Medium (DMEM, Invitrogen, Carlsbad, CA) supplemented with 10% (vol/vol) FBS (American Type Culture Collection, Manassas, VA), 1% (vol/vol) penicillin and streptomycin (Invitrogen). Cells from the human HeLa cervical adenocarcinoma cell line (American Type Culture Collection) were maintained in α-MEM medium supplemented with 10% (v/v) FBS, 1% (v/v) penicillin and streptomycin. All cells were used within passages 3 to 6. […] Cells were maintained for one week with medium renewal every other day. The day before the experiment, confluent TM were washed once with phosphate-buffered saline (PBS) and then the cells were maintained in 1% FBS-containing medium with antibiotics. […] Control cells were treated with 0.1%(v/v) dimethylsulfoxide (DMSO). At the end of GC treatment, supernatant was discarded and the cell monolayer was kept frozen at -80°C for subsequent total RNA extraction and gene expression profiling. […] Briefly, RNA was isolated from flash frozen cell culture plates using RNeasy Mini columns (Qiagen, Valencia, CA) according to the manufacturer's protocol. There were three biological replicates per treatment condition. The quantity and purity of the extracted RNA was evaluated using a NanoDrop ND-1000 spectrophotometer (Nanodrop Technologies, Wilmington, DE, USA) and its integrity measured using an Agilent Bioanalyzer. […] The amount and quality of the fluorescently labeled cRNA was assessed using a NanoDrop ND-1000 spectrophotometer and an Agilent Bioanalyzer. An equal amount of Cy3-labeled cRNA (1.6 μg) was hybridized to the Agilent Human Whole Genome Oligo Microarray (Agilent Technologies) for 17 hours, prior to washing and scanning. Data were extracted from scanned images using Agilent's Feature Extraction Software (Agilent Technologies) using default settings. […] The full complement of microarray data has been deposited in the NIH/NLM Gene Expression Omnibus (GEO accession # GSE16643). […] The lists of differentially expressed genes were also applied to global functional, network and canonical pathway analyses using Ingenuity Pathway Analysis (Ingenuity® Systems, Redwood City, CA)."}, "[2]": {"biological_target": "T1, glucocorticoid receptor (Homo sapiens, UniProt P04150)", "T1 sequence (P04150 524-777 limits assumed)": "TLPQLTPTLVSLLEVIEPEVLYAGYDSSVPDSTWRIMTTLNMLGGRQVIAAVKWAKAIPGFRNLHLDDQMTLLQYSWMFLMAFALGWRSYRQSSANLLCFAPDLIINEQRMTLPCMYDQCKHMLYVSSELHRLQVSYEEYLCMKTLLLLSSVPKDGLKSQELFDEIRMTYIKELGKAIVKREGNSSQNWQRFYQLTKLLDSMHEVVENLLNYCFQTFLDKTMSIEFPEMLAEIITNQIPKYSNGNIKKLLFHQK", "assay": "GR radiolabeled competitive binding assay (IM-9 cell cytosol, [3H]dexamethasone; Cerep)", "settings": "IM-9 cell cytosol competition curves", "protocol": "GR binding affinity assay was performed at Cerep Inc. (Celle l'Evescault, France), according to an established method. […] Nonspecific binding is determined in the presence of 10 μM triamcinolone. Following incubation, the samples are filtered rapidly under vacuum through glass fiber filters (GF/B, Packard) presoaked with 0.3% Poly(ethyleneimine) and rinsed several times with ice-cold 50 mM Tris-HCl using a 96-sample cell harvester (Unifilter, Packard). The filters are dried and counted for radioactivity in a scintillation counter (Topcount, Packard) using a scintillation cocktail (Microscint 0, Packard). The results are expressed as percent inhibition of the control radioligand specific binding. The IC50 values (concentration causing half-maximal inhibition of control specific binding) and Hill coefficients (nH) were determined by non-linear regression analysis of the competition curves generated with mean replicate values using Hill equation curve fitting (Y = D + [(A - D)/(1 + (C/C50)^nH)], where Y = specific binding, D = minimum specific binding, A = maximum specific binding, C = compound concentration, C50 = IC50, and nH = slope factor). […] The inhibition constants (Ki) were calculated using the Cheng Prusoff equation (Ki = IC50/(1+(L/KD)), where L = concentration of radioligand in the assay, and KD = affinity of the radioligand for the receptor). […] The GR binding assay was performed in duplicate."}, "[3]": {"system": "TM 86 cells", "assay": "Microarray gene expression profiling in TM 86 cells (with IPA and GoMiner analysis)", "type": "cell-based, human", "settings": "1 μM, 24 hr", "description": "as §1"}}, "data": [{"smiles": "C[C@@H]1C[C@H]2[C@@H]3CCC4=CC(=O)C=C[C@]4(C)[C@@]3(F)[C@@H](O)C[C@]2(C)[C@@]1(O)C(=O)CO", "note": "[DEX, dexamethasone]", "values": [{"measurement": "function of significantly regulated genes (Ingenuity Pathway Analysis)", "setting": "[1]", "value": "histone methylation"}, {"measurement": "number of genes uniquely regulated by each GC", "setting": "[1]", "value": 745}, {"measurement": "significantly regulated biological process (GoMiner gene ontology)", "setting": "[1]", "value": "membrane lipid metabolic process"}, {"measurement": "significantly regulated network (Ingenuity Pathway Analysis)", "setting": "[1]", "value": "a network centered around a histone methyltransferase known as suppressor of zeste 12 homolog or SUZ12"}, {"measurement": "nH (Hill coefficient)", "setting": "[2]", "value": "1.06 ± 0.18"}, {"measurement": "function of significantly regulated transcripts (Ingenuity Pathway Analysis)", "setting": "[3]", "value": "RNA post-transcriptional modifications"}, {"measurement": "number of genes uniquely regulated by each GC", "setting": "[3]", "value": 1761}, {"measurement": "significantly regulated biological process (GoMiner gene ontology)", "setting": "[3]", "value": "cellular component organization and biogenesis"}, {"measurement": "significantly regulated network (Ingenuity Pathway Analysis)", "setting": "[3]", "value": "a network centered around the RNA binding protein S1 or RNPS1"}]}]}
